Experimental data taken from patent US20250179057A1, “MEK IMMUNE ONCOLOGY INHIBITORS AND THERAPEUTIC USES THEREOF” (Immuneering Corporation, priority 2022, published 2025).
Values joined by “and” are separate entries in the source; they are usually repeats but may differ in a detail not shown here. Identical values can stand only once.

Key:
[1] = test system: phospho-MEK in A549 cells; assay: Cell-based pMEK (pMEK:tMEK, CRAF bypass) in A549 cells; details: 2 h, pMEK to total MEK normalized to DMSO control
Protocol: (§1) Materials and Methods: A549 or A375 cells were seeded in 6-well plates at an appropriate seeding density on day 0. On day 2 or 3, after checking the health and confluency of cells, the media was aspirated and replaced with 1 mL media containing a predetermined concentration of compound and incubated for 2 hours. After 2 hours, the media was aspirated, and the cells washed 2 times with cold PBS. Cells were lysed on ice, with 50 uL 1×CST lysis buffer +1 mM PMSF for 5 minutes. After 5 minutes, cells were removed using a scraper and transferred to cold 1.5 mL tubes, and centrifuged for 10 min, 4° C., 14,000×g. Supernatant was gently removed and snap frozen in liquid nitrogen. Protein concentration of the lysate was determined using Bradford Reagent (analyzed using SpectraMax M2E) and diluted to 1 mg/mL or pERK or 1.5 mg/mL for pMEK analysis. […] All dilutions were in Milk-free antibody diluent.
(§2) A549 or […] cells were treated in duplicate for two hours with compounds at varying concentrations. After two hours, the cells were lysed, snap frozen, and stored at −80° C. After storage, the lysate was quantified with the Bradford assay. Before the lysates were prepared to run on the Jess, the lysates were diluted to 1 mg/mL for pERK analysis and 1.5 mg/mL pMEK analysis using quantitative Western blotting. ERK and MEK phosphorylation levels were estimated by taking the ratio of phospho-protein to total protein and normalizing to the DMSO control.
as §2

[2] = test system: phospho-ERK in A549 (KRAS G12S) cells; assay: Cell-based pERK (pERK:tERK) in A549 cells; design: A549-pERK 10 uM, 2 h: unit not given here; details: for A549-pERK (10 nM, 2 h): phospho- to total protein ratio normalized to DMSO control (Table 9); for A549-pERK 10 uM, 2 h: phospho- to total protein ratio normalized to DMSO control
Protocol: Media components, reagents and buffers for Western Blot: All cell culture media components were obtained from ThermoFisher Scientific. […] Laemmli sample loading 4× buffer (ThermoFisher Scientific, Cat No. NP0007). MOPS/SDS electrophoresis running buffer (GenScript, Cat No. M00138).
Subculture conditions: Adherent cells were grown to approximately 90% confluency, culture medium was aspirated and the cell layer was rinsed with PBS. […] Eight mL media was added, cells were spun down at 1000×g for 5 minutes. Cell pellet was re-suspended in 10 mL media and an appropriate volume was inoculated into a new culture flask.
Compound (drug) treatment: Cells were plated in a 6-well plate at a density of 250,000-300,000 cells/well in 3 mL media and incubated 37° C. in a humidified, 5% CO2 incubator. […] These solutions were added to the cells (3 uL/well), mixed by swirling the plate, and incubated at 37° C. in a humidified, 5% CO2 incubator for 2 hours.
Cell lysis and protein estimation: Cells were washed with PBS, and scraped in 50 μL of lysis buffer containing protease and phosphatase inhibitors. Cell lysates were stored at −20° C. Cell lysates were thawed and spun at 12,000 rpm for one minute, 3 ul of the supernatant was added to 500 μL of Coomassie blue reagent following by 500 μL of water. […] Protein standards were used (0-20 mg/mL) to calculate protein concentrations of test samples.
All samples were heated at 95° C. for 5 minutes, cooled to room temperature and spun down. […] After the run, gel was removed and protein transfer was done using iBlot for 7 minutes, as per manufacturer's recommendations. After the transfer, nitrocellulose membrane was incubated on a shaker in 5 mL of blocking buffer at room temperature for 1 hr. The blot was then incubated overnight on a shaker in 5 ml of blocking buffer containing 0.2% Tween-20 and primary antibody, at room temperature. Anti-phospho-STAT3 antibody was used at a dilution of 1:500, the other 3 primary antibodies were used at a dilution of 1:1000.
Next day, the blot was washed 3 times for 10 min each with 10 mL of TBST followed by incubation on a shaker in 5 ml of blocking buffer containing 0.2% Tween-20 and 0.5 ul of the IRDye labeled secondary antibodies, diluted 1:10000, at room temperature for 1 hr. The blot was then washed 3 times for 10 min each with 10 mL of TBST and dried between sheets of paper towels. Imaging was done using LICOR's Odyssey imaging system, quantitation was done using their software, Image Studio version 3.1.
as §1
They were grown in T75 flasks in DMEM containing 10% FBS and Pen-Strep. at 37° C. in a humidified, 5% CO2 incubator. The adherent cells were grown to about 90% confluency, culture medium was aspirated, and the cell layer was rinsed with PBS. […] Eight mL media was added, cells were spun down at 1000 g for 5 minutes. Cell pellet was re-suspended in 10 mL media and an appropriate volume was inoculated into a new culture flask. Cells were plated in a 6-well plate at a density of 250,000-300,000 cells/well in 3 mL media and incubated 37° C. in a humidified, 5% CO2 incubator.

| SMILES | A549-CRAF BP 100 nM, 2 h [1] | A549-pERK (10 nM, 2 h) [2] | A549-pERK 10 uM, 2 h [2] | pERK:tERK (10 nM 2 h A549) ([2]; Phospho-ERK Screen in A549 (KRAS G12S), head 10 nM 2 h, title 10 μM for 2 hours) |
| --- | --- | --- | --- | --- |
| CCN(CC)Cc1c(Cc2cccc(NS(=O)(=O)NC)c2F)c(=O)oc2cc(OC(=O)N(C)C)ccc12 [Compound 73] | 33.9 | 77.7 |  |  |
| CNS(=O)(=O)Nc1cccc(Cc2c(CNCC(F)(F)F)c3ccc(OC(=O)N(C)C)cc3oc2=O)c1F [Compound 75] | 66.5 |  |  |  |
| CNS(=O)(=O)Nc1cccc(Cc2c(CN(C)c3ccc(Cl)cc3)c3ccc(OC(=O)N(C)C)cc3oc2=O)c1F [Compound 97] | 52.1 (mean, n = 2) | 56.5 |  |  |
| Cc1c(Cc2cccc(NS(=O)(=O)C3CCC3)c2F)c(=O)oc2cc(OC(=O)N(C)C)ccc12 [Compound 118] | 39.1 (mean, n = 2) | 21.1 |  |  |
| CNS(=O)(=O)Nc1cccc(Cc2c(CN(C)CC(C)C)c3ccc(OC(=O)N(C)C)cc3oc2=O)c1F [Compound 78] | 64.2 | 78.6 |  |  |
| CNS(=O)(=O)Nc1cccc(Cc2c(CN(C)C)c3ccc(OC(=O)N4CCC4)cc3oc2=O)c1F [Compound 128] | 37.7 | 66.3 |  |  |
| Cc1c(Cc2cccc(NS(=O)(=O)C3CC3)c2F)c(=O)oc2cc(OC(=O)N(C)C)ccc12 [Compound 113] | 48.0 (mean, n = 2) | 24.7 |  |  |
| CNS(=O)(=O)Nc1cccc(Cc2c(CN(C)c3ccccc3)c3ccc(OC(=O)N(C)C)cc3oc2=O)c1F [Compound 79] | 45.2 and 64.9 | 49.4 |  |  |
| CNS(=O)(=O)Nc1cccc(Cc2c(CN(C)C3CCC3)c3ccc(OC(=O)N(C)C)cc3oc2=O)c1F [Compound 86] | 53.2 | 96.4 |  |  |
| CNS(=O)(=O)Nc1cccc(Cc2c(CNc3ccsc3)c3ccc(OC(=O)N(C)C)cc3oc2=O)c1F [Compound 90] | 71 | 72.4 |  |  |
| CNS(=O)(=O)Nc1cccc(Cc2c(CN3CC(OC)C3)c3ccc(OC(=O)N(C)C)cc3oc2=O)c1F [Compound 74] | 59.2 | 75.3 |  |  |
| CNS(=O)(=O)Nc1cccc(Cc2c(C)c3cc(C)c(OC(=O)N(C)C)cc3oc2=O)c1F [Compound 108] | 47.9 (mean, n = 2) | 5.78 |  |  |
| Cc1c(Cc2cccc(NS(=O)(=O)C(C)C)c2F)c(=O)oc2cc(OC(=O)N(C)C)ccc12 [Compound 115] | 39.2 (mean, n = 2) | 13.5 |  |  |
| Cc1c(Cc2ccnc(NS(=O)(=O)C3CC3)c2F)c(=O)oc2cc(OC(=O)N(C)C)ccc12 [Compound 112] | 52.9 (mean, n = 2) | 46.3 |  |  |
| CNS(=O)(=O)Nc1cccc(Cc2c(CN(C)CC3CCC3)c3ccc(OC(=O)N(C)C)cc3oc2=O)c1F [Compound 88] | 53.6 | 142 |  |  |
| CN(C)C(=O)Oc1ccc2c(CN3CCNCC3)c(Cc3ccnc(NS(=O)(=O)C4CC4)c3F)c(=O)oc2c1 [Compound 150] | 90.2 | 47.4 |  |  |
| CNS(=O)(=O)Nc1cccc(Cc2c(CN(C)c3cccc(Cl)c3)c3ccc(OC(=O)N(C)C)cc3oc2=O)c1F [Compound 95] |  | 80.2 |  |  |
| CNS(=O)(=O)Nc1cccc(Cc2c(CN3CCC4(CN(C)C4)C3)c3ccc(OC(=O)N(C)C)cc3oc2=O)c1F [Compound 159] |  | 82.7 |  |  |
| CNS(=O)(=O)Nc1cccc(Cc2c(CC(=O)Nc3ccon3)c3ccc(OC(=O)N(C)C)cc3oc2=O)c1F [Compound 201] |  | 119 |  |  |
| C#CCN(C)Cc1c(Cc2cccc(NS(=O)(=O)NC)c2F)c(=O)oc2cc(OC(=O)N(C)C)ccc12 [Compound 76] |  | 62.1 |  |  |

| SMILES | A549-CRAF BP 100 nM, 2 h [1] | A549-pERK (10 nM, 2 h) [2] | A549-pERK 10 uM, 2 h [2] | pERK:tERK (10 nM 2 h A549) ([2]; Phospho-ERK Screen in A549 (KRAS G12S), head 10 nM 2 h, title 10 μM for 2 hours) |
| --- | --- | --- | --- | --- |
| CNC1CN(Cc2c(Cc3cccc(NS(=O)(=O)NC)c3F)c(=O)oc3cc(OC(=O)N(C)C)ccc23)C1 [Compound 164] |  | 102 |  |  |
| CNS(=O)(=O)Nc1cccc(Cc2c(CNc3nccs3)c3ccc(OC(=O)N(C)C)cc3oc2=O)c1F [Compound 94] |  | 93.5 |  |  |
| C#CCNC(=O)CNCc1c(Cc2cccc(NS(=O)(=O)NC)c2F)c(=O)oc2cc(OC(=O)N(C)C)ccc12 [Compound 218] |  | 113 | 9.46 |  |
| CNS(=O)(=O)Nc1cccc(Cc2c(CN3CC(C(N)=O)C3)c3ccc(OC(=O)N(C)C)cc3oc2=O)c1F [Compound 173] |  | 97.7 |  |  |
| CNS(=O)(=O)Nc1cccc(Cc2c(CNCC(=O)N(C)c3ccccc3)c3ccc(OC(=O)N(C)C)cc3oc2=O)c1F [Compound 220] |  | 109 | 4.28 |  |
| CN(C)C(=O)Oc1ccc2c(CN3CCC3)c(Cc3ccnc(NS(=O)(=O)C4CC4)c3F)c(=O)oc2c1 [Compound 155] |  | 84.9 |  |  |
| CNS(=O)(=O)Nc1cccc(Cc2c(CC(=O)N(C)C)c3ccc(OC(=O)N(C)C)cc3oc2=O)c1F [Compound 196] |  | 106 |  |  |
| CNS(=O)(=O)Nc1cccc(Cc2c(CNC(C)c3ccccc3)c3ccc(OC(=O)N(C)C)cc3oc2=O)c1F (stereo not shown) [Compound 63] |  | 88 |  |  |
| CC(C)CS(=O)(=O)Nc1cccc(Cc2c(CN3CCNCC3)c3cc(Cl)c(OC(=O)N(C)C)cc3oc2=O)c1F [Compound 168] |  |  |  | 50 (n = 2) and 53 (n = 2) |
| CNS(=O)(=O)Nc1cccc(Cc2c(CNCC(=O)N(C)CC#N)c3ccc(OC(=O)N(C)C)cc3oc2=O)c1F [Compound 217] |  | 96.7 | 11.2 |  |
| CNS(=O)(=O)Nc1cccc(Cc2c(CNc3ccccc3)c3ccc(OC(=O)N(C)C)cc3oc2=O)c1F [Compound 30] |  | 54.3 |  |  |
| CNS(=O)(=O)Nc1cccc(Cc2c(CNC(N)=O)c3ccc(OC(=O)N(C)C)cc3oc2=O)c1F [Compound 105] |  |  | 7.39 |  |
| CNS(=O)(=O)Nc1cccc(Cc2c(CNCc3cccc(C(F)(F)F)c3)c3ccc(OC(=O)N(C)C)cc3oc2=O)c1F [Compound 59] |  | 105 |  |  |
| CCN1CCN(Cc2c(Cc3cccc(NS(=O)(=O)NC)c3F)c(=O)oc3cc(OC(=O)N(C)C)ccc23)CC1=O [Compound 69] |  | 101 |  |  |
| CNS(=O)(=O)Nc1cccc(Cc2c(CN3CC(C#N)C3)c3ccc(OC(=O)N(C)C)cc3oc2=O)c1F [Compound 172] |  | 111 |  |  |
| CNS(=O)(=O)Nc1cccc(Cc2c(CNCC(=O)N(C)C)c3ccc(OC(=O)N(C)C)cc3oc2=O)c1F [Compound 57] |  | 106 and 119 | 7.33 |  |
| CCN(CC)C(=O)Oc1ccc2c(CN(C)C)c(Cc3cccc(NS(=O)(=O)NC)c3F)c(=O)oc2c1 [Compound 126] |  | 91.4 |  |  |
| CNS(=O)(=O)Nc1cccc(Cc2c(CNc3ccc(OC)nc3)c3ccc(OC(=O)N(C)C)cc3oc2=O)c1F [Compound 193] |  | 90.7 |  |  |
| CNS(=O)(=O)Nc1cccc(Cc2c(CN3CCN(C(C)C)CC3)c3ccc(OC(=O)N(C)C)cc3oc2=O)c1F [Compound 62] |  | 73 |  |  |
